Results reported in patent publication US12435044B2, “Pyridazinone herbicides and pyridazinone intermediates used to prepare a herbicide” (FMC Corporation, priority 2018, dated 2025).

How the values were obtained:
Format in all cases: in vivo
[1] = system: foxtail, giant (Setaria faberii); test: Test C pre-/postemergence greenhouse test; conditions: scale 0 to 100
Outline: (§1)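 Seeds sown in silt loam soil and sprayed preemergence with test chemicals in a non-phytotoxic solvent mixture containing surfactant. Postemergence plants, 2 to 18 cm (1- to 4-leaf stage), grown in peat/vermiculite planting medium and treated with the same formulation. Visual injury rated 0–100 versus untreated controls after 13 to 21 d in the greenhouse.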

[2] = system: lambsquarters (Chenopodium album); test: Test C pre-/postemergence greenhouse test; conditions: scale 0 to 100
Outline: as §1

oat, wild (Avena fatua) [3] = test: Test C pre-/postemergence greenhouse test; conditions: scale 0 to 100
Outline: as §1

[4] = system: barley, winter (Hordeum vulgare); test: Test D pre-/postemergence controlled growth environment test
Excerpt: (§2) Seeds of plant species selected from blackgrass (Alopecurus myosuroides), galium (catchweed bedstraw, Galium aparine), kochia (Kochia scoparia), oilseed rape (Brassica napus), barley, spring (Hordeum vulgare), wheat, spring (Triticum aestivum), oat, wild (Avena fatua), barley, winter (Hordeum vulgare) and wheat, winter (Triticum aestivum) were planted into a silt loam soil and treated preemergence with test chemicals formulated in a non-phytotoxic solvent mixture which included a surfactant.
(§3) At the same time, plants selected from these crop and weed species and also bluegrass (annual bluegrass, Poa annua), canarygrass (littleseed canarygrass, Phalaris minor), chickweed (common chickweed, Stellaria media), bromegrass, downy (downy bromegrass, Bromus tectorum), field poppy (Papaver rhoeas), field violet (Viola arvensis), foxtail, green (Setaria viridis), deadnettle (henbit deadnettle, Lamium amplexicaule), ryegrass, Italian (Lolium multiflorum), lambsquarters (Chenopodium album), pigweed (Amaranthus retroflexus), chamomile (scentless chamomile, Matricaria inodora), Russian thistle (Salsola kali), speedwell (bird's-eye speedwell, Veronica persica), buckwheat, wild (Polygonum convolvulus), mustard, wild (Sinapis arvensis), radish, wild (Raphanus raphanistrum), windgrass (Apera spica-venti), geranium, cutleaf (Geranium dissectum) and Canada thistle (Cirsium arvense) were planted in pots containing Redi-Earth® planting medium (Scotts Company, 14111 Scottslawn Road, Marysville, Ohio 43041) comprising spaghnum peat moss, vermiculite, wetting agent and starter nutrients and treated with postemergence applications of the test chemicals formulated in the same manner. Plants ranged in height from 2 to 18 cm (1- to 4-leaf stage). Treated plants and controls were maintained in a controlled growth environment for 14 to 21 d after which time all species were compared to controls and visually evaluated. Plant response ratings, summarized in Table D, are based on a scale of 0 to 100 where 0 is no effect and 100 is complete control. A dash (-) response means no test result.

[5] = system: blackgrass (Alopecurus myosuroides); test: as above
Excerpt: as §2, §3

[6] = system: galium (catchweed bedstraw, Galium aparine); test: as above
Excerpt: as §2, §3

kochia (Kochia scoparia) = test: as above
Excerpt: as §2, §3

oat, wild (Avena fatua) [7] = test: as above
Excerpt: as §2, §3

[8] = system: wheat, winter (Triticum aestivum); test: as above
Excerpt: as §2, §3

[9] = system: surinam grass (Brachiaria decumbens); test: Test C pre-/postemergence greenhouse test; conditions: scale 0 to 100
Outline: as §1

Compound: Cc1ccc2ccc(C)c(-c3c(O)c(Cl)nn(C)c3=O)c2c1 [Cpd. No. 20, 6-chloro-4-(2,7-dimethyl-1-naphthalenyl)-5-hydroxy-2-methyl-3(2H)-pyridazinone]
- Plant response rating, Foxtail, Giant ([1]; Postemergence, 16 g ai/ha): 70
- Plant response rating, Foxtail, Giant ([1]; Postemergence, 31 g ai/ha): 85
- Plant response rating, Foxtail, Giant ([1]; Postemergence, 62 g ai/ha): 85
- Plant response rating, Foxtail, Giant ([1]; Postemergence, 125 g ai/ha): 95
- Plant response rating, Foxtail, Giant ([1]; Preemergence, 31 g ai/ha): 100
- Plant response rating, Foxtail, Giant ([1]; Preemergence, 61 g ai/ha): 98
- Plant response rating, Foxtail, Giant ([1]; Preemergence, 62 g ai/ha): 100
- Plant response rating, Foxtail, Giant ([1]; Preemergence, 125 g ai/ha): 100
- Plant response rating, Lambsquarters ([2]; Postemergence, 16 g ai/ha): 75
- Plant response rating, Lambsquarters ([2]; Postemergence, 31 g ai/ha): 90
- Plant response rating, Lambsquarters ([2]; Postemergence, 62 g ai/ha): 95
- Plant response rating, Lambsquarters ([2]; Postemergence, 125 g ai/ha): 95
- Plant response rating, Lambsquarters ([2]; Preemergence, 31 g ai/ha): 75
- Plant response rating, Lambsquarters ([2]; Preemergence, 61 g ai/ha): 80
- Plant response rating, Lambsquarters ([2]; Preemergence, 62 g ai/ha): 100
- Plant response rating, Lambsquarters ([2]; Preemergence, 125 g ai/ha): 100
- Plant response rating, Oat, Wild (oat, wild (Avena fatua) [3]; Postemergence, 16 g ai/ha): 35
- Plant response rating, Oat, Wild (oat, wild (Avena fatua) [3]; Postemergence, 31 g ai/ha): 55
- Plant response rating, Oat, Wild (oat, wild (Avena fatua) [3]; Postemergence, 62 g ai/ha): 70
- Plant response rating, Oat, Wild (oat, wild (Avena fatua) [3]; Postemergence, 125 g ai/ha): 90
- Plant response rating, Barley, Winter ([4]; Postemergence, 16 g ai/ha): 0
- Plant response rating, Barley, Winter ([4]; Postemergence, 31 g ai/ha): 5
- Plant response rating, Barley, Winter ([4]; Postemergence, 62 g ai/ha): 15
- Plant response rating, Barley, Winter ([4]; Postemergence, 125 g ai/ha): 15
- Plant response rating, Barley, Winter ([4]; Preemergence, 16 g ai/ha): 0
- Plant response rating, Barley, Winter ([4]; Preemergence, 31 g ai/ha): 0
- Plant response rating, Barley, Winter ([4]; Preemergence, 62 g ai/ha): 0
- Plant response rating, Barley, Winter ([4]; Preemergence, 125 g ai/ha): 0
- Plant response rating, Blackgrass ([5]; Postemergence, 16 g ai/ha): 15
- Plant response rating, Blackgrass ([5]; Postemergence, 31 g ai/ha): 25
- Plant response rating, Blackgrass ([5]; Postemergence, 62 g ai/ha): 50
- Plant response rating, Blackgrass ([5]; Postemergence, 125 g ai/ha): 60
- Plant response rating, Blackgrass ([5]; Preemergence, 16 g ai/ha): 0
- Plant response rating, Blackgrass ([5]; Preemergence, 31 g ai/ha): 8
- Plant response rating, Blackgrass ([5]; Preemergence, 62 g ai/ha): 20
- Plant response rating, Blackgrass ([5]; Preemergence, 125 g ai/ha): 58
- Plant response rating, Galium ([6]; Postemergence, 16 g ai/ha): 80
- Plant response rating, Galium ([6]; Postemergence, 31 g ai/ha): 90
- Plant response rating, Galium ([6]; Postemergence, 62 g ai/ha): 90
- Plant response rating, Galium ([6]; Postemergence, 125 g ai/ha): 99
- Plant response rating, Galium ([6]; Preemergence, 16 g ai/ha): 78
- Plant response rating, Galium ([6]; Preemergence, 31 g ai/ha): 85
- Plant response rating, Galium ([6]; Preemergence, 62 g ai/ha): 97
- Plant response rating, Galium ([6]; Preemergence, 125 g ai/ha): 100
- Plant response rating, Kochia (kochia (Kochia scoparia); Postemergence, 16 g ai/ha): 70
- Plant response rating, Kochia (kochia (Kochia scoparia); Postemergence, 31 g ai/ha): 70
- Plant response rating, Kochia (kochia (Kochia scoparia); Postemergence, 62 g ai/ha): 70
- Plant response rating, Kochia (kochia (Kochia scoparia); Postemergence, 125 g ai/ha): 80
- Plant response rating, Kochia (kochia (Kochia scoparia); Preemergence, 16 g ai/ha): 7
- Plant response rating, Kochia (kochia (Kochia scoparia); Preemergence, 31 g ai/ha): 25
- Plant response rating, Kochia (kochia (Kochia scoparia); Preemergence, 62 g ai/ha): 35
- Plant response rating, Kochia (kochia (Kochia scoparia); Preemergence, 125 g ai/ha): 80
- Plant response rating, Oat, Wild (oat, wild (Avena fatua) [7]; Postemergence, 16 g ai/ha): 25
- Plant response rating, Oat, Wild (oat, wild (Avena fatua) [7]; Postemergence, 31 g ai/ha): 65
- Plant response rating, Oat, Wild (oat, wild (Avena fatua) [7]; Postemergence, 62 g ai/ha): 80
- Plant response rating, Oat, Wild (oat, wild (Avena fatua) [7]; Postemergence, 125 g ai/ha): 90
- Plant response rating, Oat, Wild (oat, wild (Avena fatua) [7]; Preemergence, 16 g ai/ha): 22
- Plant response rating, Oat, Wild (oat, wild (Avena fatua) [7]; Preemergence, 31 g ai/ha): 33
- Plant response rating, Oat, Wild (oat, wild (Avena fatua) [7]; Preemergence, 62 g ai/ha): 73
- Plant response rating, Oat, Wild (oat, wild (Avena fatua) [7]; Preemergence, 125 g ai/ha): 83
- Plant response rating, Wheat, Winter ([8]; Postemergence, 16 g ai/ha): 10
- Plant response rating, Wheat, Winter ([8]; Postemergence, 31 g ai/ha): 15
- Plant response rating, Wheat, Winter ([8]; Postemergence, 62 g ai/ha): 20
- Plant response rating, Wheat, Winter ([8]; Postemergence, 125 g ai/ha): 30
- Plant response rating, Wheat, Winter ([8]; Preemergence, 16 g ai/ha): 0
- Plant response rating, Wheat, Winter ([8]; Preemergence, 31 g ai/ha): 0
- Plant response rating, Wheat, Winter ([8]; Preemergence, 62 g ai/ha): 5
- Plant response rating, Wheat, Winter ([8]; Preemergence, 125 g ai/ha): 17

Compound: Cc1ccc2ccc(Cl)cc2c1-c1c(O)c(Cl)nn(C)c1=O [Cpd. No. 22]
- Plant response rating, Foxtail, Giant ([1]; Postemergence, 16 g ai/ha): 85
- Plant response rating, Foxtail, Giant ([1]; Postemergence, 31 g ai/ha): 90
- Plant response rating, Foxtail, Giant ([1]; Postemergence, 62 g ai/ha): 95
- Plant response rating, Foxtail, Giant ([1]; Postemergence, 125 g ai/ha): 98
- Plant response rating, Foxtail, Giant ([1]; Preemergence, 31 g ai/ha): 80
- Plant response rating, Foxtail, Giant ([1]; Preemergence, 61 g ai/ha): 0
- Plant response rating, Foxtail, Giant ([1]; Preemergence, 62 g ai/ha): 100
- Plant response rating, Foxtail, Giant ([1]; Preemergence, 125 g ai/ha): 100
- Plant response rating, Lambsquarters ([2]; Postemergence, 16 g ai/ha): 80
- Plant response rating, Lambsquarters ([2]; Postemergence, 31 g ai/ha): 85
- Plant response rating, Lambsquarters ([2]; Postemergence, 62 g ai/ha): 100
- Plant response rating, Lambsquarters ([2]; Postemergence, 125 g ai/ha): 85
- Plant response rating, Lambsquarters ([2]; Preemergence, 31 g ai/ha): 75
- Plant response rating, Lambsquarters ([2]; Preemergence, 61 g ai/ha): 70
- Plant response rating, Lambsquarters ([2]; Preemergence, 62 g ai/ha): 90
- Plant response rating, Lambsquarters ([2]; Preemergence, 125 g ai/ha): 100
- Plant response rating, Oat, Wild (oat, wild (Avena fatua) [3]; Postemergence, 16 g ai/ha): 98
- Plant response rating, Oat, Wild (oat, wild (Avena fatua) [3]; Postemergence, 31 g ai/ha): 100
- Plant response rating, Oat, Wild (oat, wild (Avena fatua) [3]; Postemergence, 62 g ai/ha): 100
- Plant response rating, Oat, Wild (oat, wild (Avena fatua) [3]; Postemergence, 125 g ai/ha): 100
- Plant response rating, Oat, Wild (oat, wild (Avena fatua) [3]; Preemergence, 31 g ai/ha): 30
- Plant response rating, Oat, Wild (oat, wild (Avena fatua) [3]; Preemergence, 61 g ai/ha): 0
- Plant response rating, Oat, Wild (oat, wild (Avena fatua) [3]; Preemergence, 62 g ai/ha): 45
- Plant response rating, Oat, Wild (oat, wild (Avena fatua) [3]; Preemergence, 125 g ai/ha): 95
- Plant response rating, Surinam Grass ([9]; Postemergence, 16 g ai/ha): 80
- Plant response rating, Surinam Grass ([9]; Postemergence, 31 g ai/ha): 85
- Plant response rating, Surinam Grass ([9]; Postemergence, 62 g ai/ha): 95
- Plant response rating, Surinam Grass ([9]; Postemergence, 125 g ai/ha): 95
- Plant response rating, Surinam Grass ([9]; Preemergence, 31 g ai/ha): 90
- Plant response rating, Surinam Grass ([9]; Preemergence, 61 g ai/ha): 75
- Plant response rating, Surinam Grass ([9]; Preemergence, 62 g ai/ha): 95
- Plant response rating, Surinam Grass ([9]; Preemergence, 125 g ai/ha): 100
- Plant response rating, Barley, Winter ([4]; Postemergence, 31 g ai/ha): 47
- Plant response rating, Barley, Winter ([4]; Postemergence, 62 g ai/ha): 73
- Plant response rating, Blackgrass ([5]; Postemergence, 31 g ai/ha): 75
- Plant response rating, Blackgrass ([5]; Postemergence, 62 g ai/ha): 82
- Plant response rating, Galium ([6]; Postemergence, 31 g ai/ha): 92
- Plant response rating, Galium ([6]; Postemergence, 62 g ai/ha): 96
- Plant response rating, Kochia (kochia (Kochia scoparia); Postemergence, 31 g ai/ha): 37
- Plant response rating, Kochia (kochia (Kochia scoparia); Postemergence, 62 g ai/ha): 58
- Plant response rating, Oat, Wild (oat, wild (Avena fatua) [7]; Postemergence, 31 g ai/ha): 93
- Plant response rating, Oat, Wild (oat, wild (Avena fatua) [7]; Postemergence, 62 g ai/ha): 98
- Plant response rating, Wheat, Winter ([8]; Postemergence, 31 g ai/ha): 85
- Plant response rating, Wheat, Winter ([8]; Postemergence, 62 g ai/ha): 95
